“And” between values parts separate entries of the source, which are not always exact repeats. Equal values may be shown once.
Key:
CU-ACC1 = experiment: area under concentration-response curve (viability) (AUC (a.u.)); higher = less active; details: 48 h
Procedure, shortened: (§1)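 Library compounds were dispensed at 11 concentrations (23 nL each) onto three adrenocortical carcinoma cell lines in 1,536-well plates. Luminescence was recorded after 48 h using CellTiter-Glo, and signals were normalised per plate to vehicle and empty-well controls. Fitted concentration-response curves of inhibitory or non-responding classes only supplied the AC50 and area under the curve.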

NCI-H295R = experiment: as above; details: 48 h
Procedure, shortened: as §1

| SMILES | area under concentration-response curve (CU-ACC1) | area under concentration-response curve (NCI-H295R) |
| --- | --- | --- |
| CO[C@@]12[C@H](COC(N)=O)C/3=C(N1C[C@@H]4N[C@H]24)/C(=O)/C(=C(N)\C3=O)C | 378 | – |
| O=[S+]([O-])(O)c1ccc2cc(/N=N/c3cc([S+](=O)([O-])O)c4cccnc4c3O)ccc2c1 | 500 | – |
| O=C(O)C[C@H]1CCc2c1[nH]c1ccc(OCc3ccc(C4CCCC4)c(C(F)(F)F)c3)cc21 | 506 | – |
| CC(C)[S+](=O)([O-])c1ccc2nccc(Nc3ccc4scnc4c3)c2c1 | – | 491 |
| NC(=O)c1cccc2cn(-c3ccc([C@@H]4CCCNC4)cc3)nc12 | 444 | – |
| O=C(O)Cc1cccc(OCCCN(Cc2cccc(C(F)(F)F)c2Cl)CC(c2ccccc2)c2ccccc2)c1 | 535 | – |
| CCc1cc2c(cc1N1CCC(N3CCOCC3)CC1)C(C)(C)c1[nH]c3cc(C#N)ccc3c1C2=O | 416 | – |
| O=C(O)c1ccc(-c2c[nH]c3ncc(-c4ccccc4)cc23)cc1C1CCCC1 | – | 501 |
| C[C@@H]1CCN(C(=O)CC#N)C[C@@H]1N(C)c1ncnc2[nH]ccc12 | 305 | – |
| Cc1ccc(NC(=O)c2ccc(CN3CC[C@H](N(C)C)C3)c(C(F)(F)F)c2)cc1Nc1nccc(-c2cncnc2)n1 | 549 | – |
| Cc1c(C)n(Cc2ccc(-c3ccccc3C(=O)O)cc2)c2ccc(C(=O)N[C@@H](C)c3ccc([N+](=O)[O-])cc3)cc12 | – | 402 |
| O=c1[nH]c2ccccc2n1CCCN1CCC(n2c(=O)[nH]c3cc(Cl)ccc32)CC1 | – | 539 |
| CCOC(=O)\C1=C(/C)N\C2=C(C1C3=CC=C(C=C3)C4=CC=CC=C4)\C(=O)CC(C)(C)C2 (centres undefined) | 552 | – |
| CN(C)Cc1cccc(N/C(=C2\C(=O)Nc3cc(C(=O)N(C)C)ccc32)c2ccccc2)c1 | – | 558 |
| CN(C)CCNC(=O)COc1c2cccc1Cc1cccc(c1OCC(=O)NCCN(C)C)Cc1cccc(c1OCC(=O)NCCN(C)C)Cc1cccc(c1OCC(=O)NCCN(C)C)C2 | – | 485 |
| NC(=O)c1c(OCc2c(F)cc(Br)cc2F)nsc1NC(=O)NCCCCN1CCCC1 | 395 | – |
| CC[C@H]1OC(=O)[C@H](C)[C@@H](O[C@H]2C[C@@](C)(OC)[C@@H](O)[C@H](C)O2)[C@H](C)[C@@H](O[C@@H]2O[C@H](C)C[C@H](N(C)C)[C@H]2O)[C@](C)(O)C[C@@H](C)CN(C)[C@H](C)[C@@H](O)[C@]1(C)O | 310 | – |
| CNC(=O)[C@H]1O[C@@H](n2cnc3c(NCc4cccc(I)c4)nc(Cl)nc32)[C@H](O)[C@@H]1O | – | 366 |
| Cc1ncc(Cl)cc1NCc1ccc(C(=O)NC(CC2CCCC2)C(=O)NC2CC2)s1 (centres undefined) | 467 | – |
| COc1cccc(OCCCN)c1-c1cc(Nc2cnc(C#N)cn2)n[nH]1 | 347 | – |
| CCOC(=O)c1ccc(C#Cc2ccc3c(c2)C(C)(C)CCS3)nc1 | 505 | – |
| OC[C@H]1O[C@H]([C@@H](F)[C@@H]1O)N2\C=C/C(=O)NC2=O | 370 | – |
| CSC1=CC(=CC=C1)NC2=NC3=C(C=N2)/C=C(C(=O)N3C)/C4=C(Cl)C=CC=C4Cl | – | 495 |
| CCN1CCN(C(=O)N[C@@H](C(=O)N[C@H]2[C@H]3SC\C(=C(/N3C2=O)C(O)=O)CSC4=NN=N[N]4C)C5=CC=C(O)C=C5)C(=O)C1=O | – | 269 |
| O=C(O)CCCc1ccc(N(CCCl)CCCl)cc1 | 300 | – |

| SMILES | area under concentration-response curve (CU-ACC1) | area under concentration-response curve (NCI-H295R) |
| --- | --- | --- |
| CN1\N=N/C2=C(N=C[N]2C1=O)C(N)=O | – | 581 |
| CC(C)(O)c1coc([S+](=O)([O-])NC(=O)Nc2c3c(cc4c2CCC4)CCC3)c1 | – | 555 |
| CCc1c(O)cc(O)c(C(=O)c2ccc(OCCN3CCOCC3)c(OC)c2)c1CC(=O)N(CCOC)CCOC | 216 | – |
| OC[C@H]1O[C@H]([C@H](O)[C@@H](O)[C@@H]1O)C2=C(O)C=CC3=C2O/C=C(C3=O)/C4=CC=C(O)C=C4 | – | 540 |
| O=C(O)CCCc1c[nH]c2ccccc12 | – | 400 |
| O=[S+]([O-])(CC1CS1)c1ccc(Oc2ccccc2)cc1 (centres undefined) | – | 542 |
| N[S+](=O)([O-])c1ccc(Nc2nc(OCC3CCCCC3)c3[nH]cnc3n2)cc1 | – | 554 |
| O=P1(NCCCl)OCCCN1CCCl (centres undefined) | – | 553 |
| NC\1=N\C(=O)N(\C=C1)[C@H]\2[C@H](O)[C@H](O)C(=C2F)\CO | 336 | – |
| CC(=O)c1c(O)c(C)c(O)c(Cc2c(O)c3c(c(C(=O)/C=C/c4ccccc4)c2O)OC(C)(C)C=C3)c1O | 323 | – |
| Clc1ccc(Nc2nnc(Cc3ccncc3)c3ccccc23)cc1 | – | 295 |
| CCCCN(CCCC)C(=O)CN1C[C@H](c2ccc3c(c2)OCO3)[C@@H](C(=O)O)[C@@H]1c1ccc(OC)cc1 | 460 | – |
| OC[C@H]1O[C@@H](Oc2cc(O)cc(/C=C/c3ccc(O)cc3)c2)[C@H](O)[C@@H](O)[C@@H]1O | – | 579 |
| COc1ccc([S+](=O)([O-])Nc2cc(-c3c(O)ccc4ccccc34)c(O)c3ccccc23)cc1 | 482 | – |
| OC1=CC=C(C=C1)\C2=C\C(=O)C3=C(O2)C=C(O)C=C3O | – | 389 |
| Cc1ccc(-c2ncc(Cl)cc2-c2ccc([S+](C)(=O)[O-])cc2)cn1 | 366 | – |
| O=C(/C=C/N1C[C@H]2C[C@@H]1CN2c1ccccn1)c1ccccc1O | 306 | – |
| O=C(O)CCCCCC(=O)NN=C1CCCC1 | – | 548 |
| CCOC(=O)c1ncn2c1CN(C)C(=O)c1cc(F)ccc1-2 | – | 532 |
| COc1ncc(-c2ccc3c(Nc4cc(Oc5cc(F)cc(F)c5)cc(C(=O)O)c4)c([S+](=O)([O-])NC4CC4)cnc3c2)c(OC)n1 | – | 516 |
| OC1=CC(=C(C=C1)\C2=C(O)\C(=O)C3=C(O2)C=C(O)C=C3O)O | – | 591 |
| NC(=O)c1ncn([C@@H]2O[C@H](CO)[C@@H](O)[C@H]2O)c1O | – | 401 and 302 |
| CC\12CCC(=O)\C=C1CCC3C2CCC4(C)C3CCC4(O)C#C (centres undefined) | – | 440 |
| O=C(NCCCCN1CCOCC1)c1cc2ccccc2o1 | 461 | – |
| COc1ccc(-c2cnc3c(-c4cccc5ncccc45)cnn3c2)cc1 | – | 595 |

| SMILES | area under concentration-response curve (CU-ACC1) | area under concentration-response curve (NCI-H295R) |
| --- | --- | --- |
| C[C@@H]1C(=O)O[C@H]2CC34[C@H]5C[C@@H](C(C)(C)C)C36[C@@H](OC(=O)[C@@H]6O)O[C@@]4(C(=O)O5)[C@]21O (some centres undefined) | – | 21.9 |
| CCCCCNC(=O)N1CCC(CN(Cc2ccc(Cl)cc2)Cc2ccc([N+](=O)[O-])s2)C1 (centres undefined) | 509 | – |
| CCCN(CCC)C(=O)C\1=C\C2=CC=C(C=C2\N=C(N)/C1)C3=CC=C(C=C3)C(=O)N4CCCC4 | – | 581 |
| COc1cc2c(cc1O)CC[C@@H]1[C@@H]2CC[C@]2(C)[C@@H](O)CC[C@@H]12 | – | 383 |
| CCc1cc(C(N)=S)ccn1 | – | 552 |
| FC1=CC=C(CN2\C=C/C=C(/C(=O)N[C@@H](COC3=CC4=C(NC(=O)N4)C=C3)C5=CC=CC=C5)C2=O)C=C1F | 546 | – |
| CC1(C)CCC2(CC1)N[C@@H](C(=O)N[C@@H]1CC[C@@H](C(N)=O)OC1)[C@H](c1ccnc(Cl)c1F)[C@]21C(=O)Nc2cc(Cl)ccc21 | 501 | – |
| C=CCN1C[C@H](C(=O)N(CCCN(C)C)C(=O)NCC)CC2c3cccc4[nH]cc(c34)C[C@H]21 (some centres undefined) | – | 545 |
| Clc1ccc(COC(Cn2ccnc2)c2ccc(Cl)cc2Cl)cc1 (centres undefined) | 433 | – |
| CCC[S+](=O)([O-])Nc1ccc(F)c(C(=O)c2c[nH]c3ncc(-c4ccc(Cl)cc4)cc23)c1F | – | 556 |
| CCCN[C@H]1CCc2nc(N)sc2C1 | – | 566 |
| O=C(O)CCCCC(CCSCc1ccccc1)SCc1ccccc1 (centres undefined) | – | 589 |
| CCOC(=O)C(C#N)C\1C2=CC(=CC=C2O\C(=C1C(=O)OCC)N)Br (centres undefined) | – | 569 |
| COc1ccc2cc(-c3[nH]c(-c4ccc([S+](C)[O-])cc4)nc3-c3ccncc3)ccc2c1 (centres undefined) | 472 | – |
| CCN(CCO)CCCC(C)Nc1ccnc2cc(Cl)ccc12 (centres undefined) | – | 368 |
| O=C(CCc1ccc(O)cc1)c1c(O)cc(O)cc1O[C@@H]1O[C@H](CO)[C@@H](O)[C@H](O)[C@H]1O | – | 242 |
| OC1=CC=C(C=C1)\C2=C\OC3=C(C=CC(=C3)O)C2=O | – | 565 |
| CC1OC(OC/2=C(/OC3=C(C(=CC(=C3)O)O)C2=O)C4=CC=C(O)C=C4)C(O)C(OC(C)=O)C1OC(C)=O (centres undefined) | – | 289 |
| OCCN(CCO)c1nc(N2CCCCC2)c2nc(N(CCO)CCO)nc(N3CCCCC3)c2n1 | 478 | – |
| COc1cc2c(Oc3ccc4[nH]c(C)cc4c3F)ccnc2cc1OCC1(N)CC1 | 534 | – |
| COc1ccc(Cc2ccc(NC(N)=O)cc2)cc1-c1cccc(Cl)c1 | 480 | – |
| Cc1cc(C)cc(NC(=O)Cc2ccc(OC(C)(C)C(=O)O)cc2)c1 | 504 | – |
| C[C@]12CC[C@H]3[C@@H](CC(=C)\C4=C\C(=O)\C=C/[C@]34C)[C@@H]1CCC2=O | 320 | – |
| CCCCCCCN(CC)CCCC(O)c1ccc(N[S+](C)(=O)[O-])cc1 (centres undefined) | 398 | – |
